Experimental findings from patent US6803480B2, “Diphenylmethane derivatives” (Bayer Aktiengesellschaft, priority 2000, dated 2004) are described below.

The assay in a line: T3 promoter assay cell test (luciferase reporter). Particulars: Homo sapiens; HepG2 cells, luciferase induction, costimulator retinoic acid, incubation 48 or 72 hours, four replicates. The class given is cell-based. The method, then:
Their activity can be tested, for example, in vitro by the following T3 promoter assay cell test:
The test is carried out with a stably transfected human HepG2 hepatocarcinoma cell which expresses a luciferase gene under the control of a thyroid hormone-regulated promoter. The vector used for the transfection has upstream of the luciferase gene a minimal thymidine kinase promoter with a thyroid hormone-responsive element (TRE) which consists of two inverted palindromes each of 12 bp and of an 8 bp spacer.
For the test, the cell cultures are seeded in Eagle's minimal essential medium in 96-well plates with the following additions: glutamine, tricine, sodium pyruvate, nonessential amino acids, insulin, selenium and transferrin. The cultures are grown at 37° C. with a 10% CO2 atmosphere for 48 hours. Then serial dilutions of test substance or reference compound (T3, T4) and costimulator retinoic acid are added to the test cultures and the latter are incubated as previously for a further 48 or 72 hours. Each substance concentration is tested in four replicates. To determine the luciferase induced by T3 or other substances, the cells are subsequently lysed by adding a Triton- and luciferin-containing buffer and measured immediately in a luminometer. The EC50 values for each compound are calculated (see Table 1).
`Cc1cc(NC(=O)C(=O)O)cc(C)c1Cc1ccc(O)c(C(C)C)c1` [Example 2, 2-[4-(4-Hydroxy-3-isopropylbenzyl)-3,5-dimethylanilino]-2-oxoacetic acid] yielded an EC50 of 0.14 nM. With `Cc1cc(NC(=O)C(=O)O)cc(C)c1Cc1ccc(O)c(Cc2ccc(F)cc2)c1` [Example 4, ({4-[3-(4-Fluorobenzyl)-4-hydroxybenzyl]-3,5-dimethylphenyl}amino)(oxo)acetic acid], the EC50 was determined as 0.23 nM. On to `COc1ccc(Cc2c(C)cc(NC(=O)C(=O)O)cc2C)cc1Cc1ccc(F)cc1` [Example 5, ({4-[3-(4-Fluorobenzyl)-4-methoxybenzyl]-3,5-dimethylphenyl}amino)(oxo)acetic acid], for which the response was half-maximal at 4.3 nM (EC50).
